Assay results from US20220313651A1, “INHIBITORS OF ZIKA VIRUS INFECTION” (priority 2019, published 2022).
Like-named read-outs stand apart in the source and are kept apart here.

Key:
[1] = target: T1, ZIKV NS2B-NS3 protease (Zika virus, UniProt Q32ZE1); experiment: ELISA binding to ZIKV NS2B-NS3 protease
T1 construct: 49-97) and NS2 protein (residues 1-185) through a covalent; made in house; host or cells: E. coli
Procedure: (§1) Binding of compounds (NPs) to ZIKV full-length E (FIG. 3A), EDIII (FIG. 3B), and NS2B-NS3 (FIG. 3C) proteins, was detected by ELISA. The percent binding was reported in the presence or absence of serially diluted NPs using the formula (1-[E/EDIII-NP]/[E/EDIII])×100 (for E/EDIII binding) or (1-[NS2B-NS3-NP]/[NS2B-NS3])×100 (for NSEB-NS3 binding). […] The concentrations of ZIKV EDIII and mAbs were 1.5 and 0.5 μg/ml, respectively. […] The concentrations of substrate (Bz-Nle-Lys-Lys-Arg-AMC) and ZIKV NS2B-NS3 protein were 4 μM and 1 μg/ml, respectively. The percent inhibition of protease activity was calculated in the presence or absence of serially diluted compounds using the formula (1-[NS2B-NS3-substrate-NP]/[NS2B-NS3-substrate])×100. The IC50 values were calculated based on the percent inhibition. The data are expressed as mean±s.e.m. (n=4).
(§2) The data are expressed as mean±s.e.m. (n=4), and DMSO was used as negative control. Surface plasmon resonance (SPR) analysis of the binding between ST087010 and ZIKV EDIII (FIG. 6D) or NS2B-NS3 (FIG. 6E) protein was performed. Binding affinity was shown as KD (equilibrium dissociation constant).
(§3) The binding between the Z-medicament and ZIKV full-length E protein, EDIII protein (E residues 298-409 fused with a C-terminal human Fc), or NS2B-NS3 protease was carried out by ELISA. Briefly, ELISA plates were pre-coated with the proteins described above at 4° C. overnight, and blocked with 2% fat-free milk at 37° C. for 2 h. Serial dilutions of the Z-medicament or DMSO (control) were then added to the plates and incubated at 37° C. for 2 h. The plates were washed with PBS containing Tween-20 (PBST), and incubated at 37° C. for 1 h with ZIKV EDIII-specific human mAb ZKA64-LALA (0.5 μg/ml) (for binding to ZIKV full-length E and EDIII proteins), or mouse sera specific to ZIKV NS2B-NS3 (for binding to NS2B-NS3 protease). The plates were washed with PBST, and incubated with horseradish peroxidase (HRP)-conjugated anti-human IgG-Fab (1:3000) or anti-mouse IgG (1:3000) antibody at 37° C. for 1 h. The 3,3′,5,5′-tetramethylbenzidine (TMB) substrate was added to the plates, and the reaction was stopped by 1 N H2SO4. Absorbance at 450 nm (A450 value) was measured by ELISA microplate reader.
(§4) Briefly, ELISA plates were coated with each protein (1 μg/ml) at 4° C. overnight, and were then incubated with blocking buffer containing 2% fat-free milk in PBST at 37° C. for 2 h. The above compounds, or DMSO control, at serial dilutions were added to the plates, and incubated at 37° C. for 2 h. After three washes using PBST, the plates were incubated at 37° C. for 2 h with ZIKV EDIII-specific human mAb ZKA64-LALA (0.5 μg/ml) (for binding to ZIKV full-length E or EDIII protein), or ZIKV NS2B-NS3-specific mouse sera (for binding to NS2B-NS3 protein). After further washes, the plates were incubated with HRP-conjugated anti-human IgG-Fab (1:3,000) or anti-mouse IgG (1:3,000) antibody at 37° C. for 1 h.

[2] = target: ZIKV full-length E protein (Zika virus, UniProt Q32ZE1); experiment: ELISA binding to ZIKV full-length E protein
Procedure: as §1, §2, §3
as §4, with “1 h. The plates were incubated with substrate TMB, and the reaction was stopped by addition of 1 N H2SO4. Absorbance at 450 nm (A450 values) was measured by an ELISA microplate reader. EC50 values were calculated.” for “1 h.”

[3] = system: ZIKV human strain PRVABC59 (2015/Puerto Rico); experiment: Plaque reduction inhibition assay in Vero E6 cells, ZIKV PRVABC59; format: cell-based, Zika virus (ZIKV)
Procedure: A plaque reduction inhibition assay was carried out to measure the inhibitory activity of Z-medicaments against infections of ZIKV and DENV. […] The compound-virus mixtures were then transferred to Vero E6 cells (10^5/well) and incubated at 37° C. for 1 h.

SMILES | Binding to ZIKV NS2B-NS3 protein (in words) [1] | Binding to ZIKV full-length E protein (in words) [2] | other results
C[C@H]1[C@H]2CC[C@H]3[C@@H]4CC=C5C[C@@H](N(C)C)CC[C@]5(C)[C@H]4CC[C@]23CN1C [Conessine, conessine] | bound to no ZIKV proteins tested | bound to no ZIKV proteins tested | 
COc1cc(/C=C/C(=O)CC(=O)/C=C/c2ccc(O)c(OC)c2)ccc1O [Curcumin, curcumin] | much lower binding affinity | much lower binding affinity | 
C[C@@H]1CC[C@@]2(OC1)O[C@H]1[C@@H](O)[C@H]3[C@@H]4CC[C@H]5C[C@@H](O[C@@H]6O[C@H](CO)[C@H](O[C@@H]7O[C@H](CO)[C@@H](O)[C@H](O[C@@H]8OC[C@@H](O)[C@H](O)[C@H]8O)[C@H]7O[C@@H]7O[C@H](CO)[C@H](O)[C@H](O[C@@H]8O[C@H](CO)[C@@H](O)[C@H](O)[C@H]8O)[C@H]7O)[C@H](O)[C@H]6O)[C@H](O)C[C@]5(C)[C@H]4CC[C@]3(C)[C@H]1[C@@H]2C [Digitonin, digitonin] | bound to no ZIKV proteins tested | bound to no ZIKV proteins tested | IC50 ([3]; Zika virus, Vero C1008, Vero E6 cells, Table 1, read-out: IC50 against ZIKV strain PRVABC59): 3.76 ± 1.12 µM
Cc1cc2c(C(C)C)c(O)c(O)c(C=O)c2c(O)c1-c1c(C)cc2c(C(C)C)c(O)c(O)c(C=O)c2c1O [Gossypol, gossypol] |  |  | IC50 ([3]; Zika virus, Vero C1008, read-out: ZIKV strains IC50, PRVABC59): 4.55 ± 0.07 µM
Cc1cc2c(C(C)C)c(O)c(O)c(/C=N/n3c(=O)[nH][nH]c3=O)c2c(O)c1-c1c(C)cc2c(C(C)C)c(O)c(O)c(/C=N/n3c(=O)[nH][nH]c3=O)c2c1O [ST087010] |  |  | IC50 ([3]; Vero E6 cells, Table 7, gossypol derivatives, read-out: ZIKV strains IC50, PRVABC59): 2.36 ± 0.05 µM; EC50 ([1]; detected with NS2B-NS3-immunized mouse sera, read-out: EC50, binding to ZIKV NS2B-NS3 protein): 21.9 µM; EC50 ([2]; detected with mAb ZKA64-LALA): 6.47 µM
